Patent publication US9296757B2, “Substituted benzothienopyrimidines” (BAYER PHARMA AKTIENGESELLSCHAFT, priority 2012, dated 2016)
pIC50: −log10 of the molar value.

Target: human full-length MKNK1 (Homo sapiens (Human), UniProt Q9BUB5, T344D)
Assay: MKNK1 kinase high ATP assay (TR-FRET)
Type: biochemical
Conditions: high ATP (2 mM final), 15 min preincubation with enzyme
Outline: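 GST-tagged full-length MKNK1 (T344D), insect-cell expressed, preincubated 15 min at 22 °C with compound, then reacted 30 min at 22 °C with 2 mM ATP and 0.06 μM biotinylated peptide in HEPES pH 7.5 buffer (final concentrations). Phospho-peptide detected by TR-FRET (665/620 nm ratio), normalised to no-inhibitor and no-enzyme controls.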

Chain of human full-length MKNK1 (Q9BUB5 other isoform, or with tags, fused parts or gaps T344D): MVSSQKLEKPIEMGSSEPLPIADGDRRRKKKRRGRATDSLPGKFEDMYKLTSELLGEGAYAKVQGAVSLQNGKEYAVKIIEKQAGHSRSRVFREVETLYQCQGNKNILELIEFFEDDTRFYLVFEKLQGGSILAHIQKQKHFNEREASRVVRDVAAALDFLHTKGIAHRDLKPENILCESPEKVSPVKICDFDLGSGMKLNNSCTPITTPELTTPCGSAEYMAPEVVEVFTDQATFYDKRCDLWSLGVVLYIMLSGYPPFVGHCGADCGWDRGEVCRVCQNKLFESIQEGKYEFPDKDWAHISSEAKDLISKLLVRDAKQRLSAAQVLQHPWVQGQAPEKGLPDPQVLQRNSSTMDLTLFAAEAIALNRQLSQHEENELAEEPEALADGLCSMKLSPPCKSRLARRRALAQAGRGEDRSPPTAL

Row | SMILES | pIC50
1 | CCCN(CCOC)C(=O)C1CCc2c(sc3ncnc(Nc4cc5sc(=O)[nH]c5cc4OC)c23)C1 (racemic) [Example 87, (RS)—N-(2-Methoxyethyl)-4-[(5-methoxy-2-oxo-2,3-dihydro-1,3-benzothiazol-6-yl)amino]-N-propyl-5,6,7,8-tetrahydro[1]benzothieno[2,3-d]pyrimidine-7-carboxamide] | 8.70
2 | CCCCN(CC#N)C(=O)C1CCc2c(sc3ncnc(Nc4cc5sc(=O)[nH]c5cc4OC)c23)C1 (racemic) [Example 88, (RS)—N-Butyl-N-(cyanomethyl)-4-[(5-methoxy-2-oxo-2,3-dihydro-1,3-benzothiazol-6-yl)amino]-5,6,7,8-tetrahydro[1]benzothieno[2,3-d]pyrimidine-7-carboxamide] | 9.00
3 | COc1cc2[nH]c(=O)sc2cc1Nc1ncnc2sc3c(c12)CCC(C(=O)O)C3 (stereo not drawn) [Example 33, 4-[(5-Methoxy-2-oxo-2,3-dihydro-1,3-benzothiazol-6-yl)amino]-5,6,7,8-tetrahydro[1]benzothieno[2,3-d]pyrimidine-7-carboxylic acid] | 7.38
4 | O=C(C1CCc2c(sc3ncnc(Nc4ccc5[nH]c(=O)sc5c4)c23)C1)N1CCN(Cc2ccccc2)CC1 (stereo not drawn) [Example 38, 6-({7-[(4-benzylpiperazin-1-yl)carbonyl]-5,6,7,8-tetrahydro[1]benzothieno[2,3-d]pyrimidin-4-yl}amino)-1,3-benzothiazol-2(3H)-one] | 7.36

Results, then the compound that gave them:

Row | pIC50 | SMILES
5 | 8.72 | CCCCN(C)C(=O)C1CCc2c(sc3ncnc(Nc4cc5sc(=O)[nH]c5cc4OC)c23)C1 (racemic) [Example 89, (RS)—N-Butyl-4-[(5-methoxy-2-oxo-2,3-dihydro-1,3-benzothiazol-6-yl)amino]-N-methyl-5,6,7,8-tetrahydro[1]benzothieno[2,3-d]pyrimidine-7-carboxamide]
6 | 9.00 | CCN(CCOC)C(=O)C1CCc2c(sc3ncnc(Nc4cc5sc(=O)[nH]c5cc4OC)c23)C1 (racemic) [Example 90, (RS)—N-Ethyl-N-(2-methoxyethyl)-4-[(5-methoxy-2-oxo-2,3-dihydro-1,3-benzothiazol-6-yl)amino]-5,6,7,8-tetrahydro[1]benzothieno[2,3-d]pyrimidine-7-carboxamide]
7 | 7.41 | N#CC1CN(C(=O)C2CCc3c(sc4ncnc(Nc5ccc6[nH]c(=O)sc6c5)c34)C2)C1 (racemic) [Example 91, (RS)-1-({4-[(2-Oxo-2,3-dihydro-1,3-benzothiazol-6-yl)amino]-5,6,7,8-tetrahydro[1]benzothieno[2,3-d]pyrimidin-7-yl}carbonyl)azetidine-3-carbonitrile]
8 | 9.22 | COc1cc2[nH]c(=O)sc2cc1Nc1ncnc2sc3c(c12)CCC(C(=O)N(CCN(C)C)Cc1ccccc1)C3 (racemic) [Example 92, (RS)—N-Benzyl-N-[2-(dimethylamino)ethyl]-4-[(5-methoxy-2-oxo-2,3-dihydro-1,3-benzothiazol-6-yl)amino]-5,6,7,8-tetrahydro[1]benzothieno[2,3-d]pyrimidine-7-carboxamide]
9 | 9.15 | COCCN(CCOC)C(=O)C1CCc2c(sc3ncnc(Nc4cc5sc(=O)[nH]c5cc4OC)c23)C1 (racemic) [Example 93, (RS)—N,N-bis(2-methoxyethyl)-4-[(5-methoxy-2-oxo-2,3-dihydro-1,3-benzothiazol-6-yl)amino]-5,6,7,8-tetrahydro[1]benzothieno[2,3-d]pyrimidine-7-carboxamide]
